Assay results from PubChem BioAssay AID1963985 (Molecular Pharmacology Branch, DTP, NCI, 2024).

Test system: 252836-082-R-J2-PDC tumor spheroids, viability
Experiment: Anticancer human tumor 252836-082-R-J2-PDC patient-derived head and neck squamous cell carcinoma cell line growth inhibition [PI3K]
Conditions: spheroids with HUVEC and MSC; for viability, T/C: stronger effect = lower value
Procedure, shortened: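 Targeted small molecules plus PI3K inhibitors, half-log dose series from Cmax (default top 10 microM), were applied to heterotypic spheroids of cancer cells with HUVEC and MSCs. Viability indicated growth inhibition.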

[1] = curve of first compound, second compound 0.0316 µM
[2] = curve of first compound, second compound 0.1 µM
[3] = curve of first compound, second compound 0.316 µM
[4] = curve of first compound, second compound 1 µM
[5] = curve of first compound, second compound 3.16 µM
[6] = curve of first compound, second compound 10 µM
[7] = second compound 0.0316 µM, first compound 0.0316 µM
[8] = second compound 0.0316 µM, first compound 0.1 µM
[9] = second compound 0.0316 µM, first compound 0.316 µM
[10] = second compound 0.0316 µM, first compound 1 µM
[11] = second compound 0.0316 µM, first compound 3.16 µM
[12] = second compound 0.0316 µM, first compound 10 µM
[13] = second compound 0.1 µM, first compound 0.0316 µM
[14] = second compound 0.1 µM, first compound 0.1 µM
[15] = second compound 0.1 µM, first compound 0.316 µM
[16] = second compound 0.1 µM, first compound 1 µM
[17] = second compound 0.1 µM, first compound 3.16 µM
[18] = second compound 0.1 µM, first compound 10 µM
[19] = second compound 0.316 µM, first compound 0.0316 µM
[20] = second compound 0.316 µM, first compound 0.1 µM
[21] = second compound 0.316 µM, first compound 0.316 µM
[22] = second compound 0.316 µM, first compound 1 µM
[23] = second compound 0.316 µM, first compound 3.16 µM
[24] = second compound 0.316 µM, first compound 10 µM
[25] = second compound 1 µM, first compound 0.0316 µM
[26] = second compound 1 µM, first compound 0.1 µM
[27] = second compound 1 µM, first compound 0.316 µM
[28] = second compound 1 µM, first compound 1 µM
[29] = second compound 1 µM, first compound 3.16 µM
[30] = second compound 1 µM, first compound 10 µM
[31] = second compound 3.16 µM, first compound 0.0316 µM
[32] = second compound 3.16 µM, first compound 0.1 µM
[33] = second compound 3.16 µM, first compound 0.316 µM
[34] = second compound 3.16 µM, first compound 1 µM
[35] = second compound 3.16 µM, first compound 3.16 µM
[36] = second compound 3.16 µM, first compound 10 µM
[37] = second compound 10 µM, first compound 0.0316 µM
[38] = second compound 10 µM, first compound 0.1 µM
[39] = second compound 10 µM, first compound 0.316 µM
[40] = second compound 10 µM, first compound 1 µM
[41] = second compound 10 µM, first compound 3.16 µM
[42] = second compound 10 µM, first compound 10 µM
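Further: spheroids exposed to agents for seven days before readout.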
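Wherever viability, T/C is given: percent of vehicle DMSO control viability so 100% = untreated growth.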

Cn1ncc(Cl)c1-c1cc(C(=O)NC(CN)Cc2cccc(F)c2)sc1Cl (centres undefined) + CC(Nc1ncnc2nc[nH]c12)c1cc2cccc(Cl)c2c(=O)n1-c1ccccc1 was tested, and the IC50 [1] was 0.642 µM, the IC50 [2] was 0.713 µM and the IC50 [3] was 0.496 µM. The IC50 [4] was 0.623 µM, the IC50 [5] was 0.538 µM and the IC50 [6] was 0.273 µM. The viability, T/C [7] was 90.3%, the viability, T/C [8] was 65% and the viability, T/C [9] was 63.8%. The viability, T/C [10] was 44.5%, the viability, T/C [11] was 30% and the viability, T/C [12] was 12.1%. For the same compound, the viability, T/C [13] was 100%, the viability, T/C [14] was 81% and the viability, T/C [15] was 59.7%. The viability, T/C [16] was 43.9%, the viability, T/C [17] was 33% and the viability, T/C [18] was 12.2%. For the same compound, the viability, T/C [19] was 80.9%, the viability, T/C [20] was 70.3% and the viability, T/C [21] was 56.2%. It also gave a viability, T/C [22] of 38.8%, a viability, T/C [23] of 28.2% and a viability, T/C [24] of 12%. The viability, T/C [25] was 84%, the viability, T/C [26] was 80.4% and the viability, T/C [27] was 58.3%. For the same compound, the viability, T/C [28] was 40.7%, the viability, T/C [29] was 29.5% and the viability, T/C [30] was 13%. The viability, T/C [31] was 76.5%, the viability, T/C [32] was 71.8% and the viability, T/C [33] was 53.8%. For the same compound, the viability, T/C [34] was 43.3%, the viability, T/C [35] was 27.8% and the viability, T/C [36] was 15.5%. The viability, T/C [37] was 57%, the viability, T/C [38] was 60.9% and the viability, T/C [39] was 49.3%. The viability, T/C [40] was 30.7%, the viability, T/C [41] was 27% and the viability, T/C [42] was 14.1%.

In the case of CNC(=O)c1ccc(N2C(=S)N(c3ccc(C#N)c(C(F)(F)F)c3)C(=O)C2(C)C)cc1F, the viability, T/C (compound 0.1 µM) is reported as 92.5% [middle of 4 runs], the viability, T/C (compound 0.316 µM) is reported as 105% [middle of 4 runs] and the viability, T/C (compound 1 µM) is reported as 96.4% [middle of 4 runs]. For the same compound, the viability, T/C (compound 3.16 µM) was 94.9% [middle of 4 runs], the viability, T/C (compound 10 µM) was 94.5% [middle of 4 runs] and the IC50 (curve of compound) was over 10 µM.

For Cn1ncnc1[C@H]1c2n[nH]c(=O)c3cc(F)cc(c23)N[C@@H]1c1ccc(F)cc1, the viability, T/C (compound 0.000316 µM) was 97% [middle of 4 runs], the viability, T/C (compound 0.001 µM) was 95.9% [middle of 4 runs] and the viability, T/C (compound 0.00316 µM) was 89.2% [middle of 4 runs]. The viability, T/C (compound 0.01 µM) was 93.7% [middle of 4 runs], the viability, T/C (compound 0.0316 µM) was 69.4% [middle of 4 runs] and the viability, T/C (compound 0.1 µM) was 55.5% [middle of 4 runs]. It also gave an IC50 (curve of compound) of over 0.1 µM.

For CC(C)NCC(C(=O)N1CCN(c2ncnc3c2C(C)CC3O)CC1)c1ccc(Cl)cc1 (centres undefined) + COc1c(OCCCN2CCOCC2)ccc2c3n(c(=NC(=O)c4cnc(N)nc4)nc12)CCN3, the IC50 (curve of first compound, second compound 0.00316 µM) was 1.04 µM, the IC50 (curve of first compound, second compound 0.01 µM) was 0.566 µM and the IC50 [1] was 0.285 µM. It also gave an IC50 [2] of under 0.0316 µM, an IC50 [3] of under 0.0316 µM and an IC50 [4] of under 0.0316 µM. The viability, T/C (second compound 0.00316 µM, first compound 0.0316 µM) was 82.9%, the viability, T/C (second compound 0.00316 µM, first compound 0.1 µM) was 77.9% and the viability, T/C (second compound 0.00316 µM, first compound 0.316 µM) was 64.8%. The viability, T/C (second compound 0.00316 µM, first compound 1 µM) was 50.6%, the viability, T/C (second compound 0.00316 µM, first compound 3.16 µM) was 34.6% and the viability, T/C (second compound 0.00316 µM, first compound 10 µM) was 20.3%. It also gave a viability, T/C (second compound 0.01 µM, first compound 0.0316 µM) of 71.2%, a viability, T/C (second compound 0.01 µM, first compound 0.1 µM) of 64.3% and a viability, T/C (second compound 0.01 µM, first compound 0.316 µM) of 59.7%. The viability, T/C (second compound 0.01 µM, first compound 1 µM) was 41.3%, the viability, T/C (second compound 0.01 µM, first compound 3.16 µM) was 26.4% and the viability, T/C (second compound 0.01 µM, first compound 10 µM) was 15.4%. It also gave a viability, T/C [7] of 56.2%, a viability, T/C [8] of 56.4% and a viability, T/C [9] of 47.2%. It also gave a viability, T/C [10] of 40%, a viability, T/C [11] of 21.9% and a viability, T/C [12] of 11.6%. The viability, T/C [13] was 36.6%, the viability, T/C [14] was 30.3% and the viability, T/C [15] was 26%. The viability, T/C [16] was 24.7%, the viability, T/C [17] was 17.1% and the viability, T/C [18] was 10.2%. The viability, T/C [19] was 14.3%, the viability, T/C [20] was 13.8% and the viability, T/C [21] was 11.6%. The viability, T/C [22] was 12.8%, the viability, T/C [23] was 8.52% and the viability, T/C [24] was 5.44%. The viability, T/C [25] was 4.96%, the viability, T/C [26] was 3.28% and the viability, T/C [27] was 5.23%. It also gave a viability, T/C [28] of 4.34%, a viability, T/C [29] of 3.37% and a viability, T/C [30] of 3.42%.

In the case of CCCS(=O)(=O)Nc1ccc(F)c(C(=O)c2c[nH]c3ncc(-c4ccc(Cl)cc4)cc23)c1F + Cc1nc(NC(=O)N2CCCC2C(N)=O)sc1-c1ccnc(C(C)(C)C(F)(F)F)c1, the IC50 [1] is reported as 5.16 µM, the IC50 [2] is reported as 4.74 µM and the IC50 [3] is reported as 4.21 µM. It also gave an IC50 [4] of 3.49 µM, an IC50 [5] of 0.0316 µM and an IC50 [6] of under 0.0316 µM. The viability, T/C [7] was 94.2%, the viability, T/C [8] was 95.6% and the viability, T/C [9] was 79.9%. It also gave a viability, T/C [10] of 84.7%, a viability, T/C [11] of 83.7% and a viability, T/C [12] of 4.52%. It also gave a viability, T/C [13] of 84.3%, a viability, T/C [14] of 84.3% and a viability, T/C [15] of 86.2%. The viability, T/C [16] was 96.3%, the viability, T/C [17] was 75.1% and the viability, T/C [18] was 3.91%. It also gave a viability, T/C [19] of 73.2%, a viability, T/C [20] of 62% and a viability, T/C [21] of 80.9%. For the same compound, the viability, T/C [22] was 78.2%, the viability, T/C [23] was 63.4% and the viability, T/C [24] was 5.17%. It also gave a viability, T/C [25] of 58.1%, a viability, T/C [26] of 52.7% and a viability, T/C [27] of 64.8%. It also gave a viability, T/C [28] of 57.5%, a viability, T/C [29] of 54.2% and a viability, T/C [30] of 4.7%. It also gave a viability, T/C [31] of 52.2%, a viability, T/C [32] of 38.9% and a viability, T/C [33] of 50.9%. It also gave a viability, T/C [34] of 54.1%, a viability, T/C [35] of 37.2% and a viability, T/C [36] of 7.19%. It also gave a viability, T/C [37] of 39.7%, a viability, T/C [38] of 35.7% and a viability, T/C [39] of 43.7%. The viability, T/C [40] was 37.8%, the viability, T/C [41] was 21.2% and the viability, T/C [42] was 4.33%.
